Patent US5441944A, “Substituted cyclodextrin sulfates and their uses as growth modulating agents” (The Trustees of the University of Pennsylvania, priority 1992, dated 1995)

What was measured:
[1] = tested on: tumor angiogenesis in hamster cheek pouches; conditions: Shubik et al. 1976, cited from earlier work
[2] = tested on: tumor angiogenesis in rabbit corneas; conditions: Gross et al. 1981; cited from earlier work
capillary growth; tumors = conditions: cited from earlier work
[3] = conductivity measurements in deionized water; assay type: physicochemical
Source text: Conductivity is an accepted method for measuring the degree of ionic substitution and can be used to evidence the addition of a charged group, such as sulfate to a compound. […] Results of conducting measurements obtained in deionized water having a background conductivity of 2.5 (±0.2)×[…] mho/cm are shown in Table I.

[4] = assay type: physicochemical; conditions: water
Method: The substituted CD sulfates useful in the present invention are highly hydrophilic and therefore very water soluble, with a solubility of at least 20 gm/100 ml in water at 0° C. Without wishing to be bound by theory, we believe that a highly hydrophilic character is important to allow interaction with cellular surfaces. We also believe a very high water solubility of the derivative is an important factor which cooperatively interacts with the inherent complexing ability of the CD structure to provide effective inhibition of angiogenesis with an exogenous steroid, as provided by this invention. We believe that the hydrophilic activity is roughly indicated by the affinity to water, as measured by water solubility. It is important to measure the same at 0° C. since at higher temperatures the most suitable derivatives have solubilities so high that it is difficult to obtain meaningful measurements.

[5] = dye staining analysis for high density sulfate saccharides (Alcian Blue, alumina TLC plate); assay type: physicochemical; conditions: 0.8 mg/ml sample, 1 μl spot; 0.5 mg/ml Alcian Blue, 0.25M acetate buffer, 5.6 pH
Method: Such complexing behavior has been utilized in histology, for selective staining to indicate high sulfur natural saccharides such as heparin (Snow et al., 1987, Human Pathology 18:506-510 and Dorling, 1969, Med. Lab. Techn. 26:124-130).
The following procedure was used to detect the presence of high density sulfate groups. An alumina TLC plate (Analtech, Newark, Del.) was spotted with a drop (1 μl) of a sample (0.8 mg/ml) to be tested. The spot or spots were dried for 10 minutes at about 60° C. Aqueous solution of 0.5 mg/ml of Alcian Blue (8GX, Aldrich), buffered with 0.25M acetate buffer at 5.6 pH is allowed to rise along the plate up to and past the test spot.

| Compound | inhibition of tumor angiogenesis [2] | Conductivity [3] | other results |
| --- | --- | --- | --- |
| C[C@H]1C[C@@H]2[C@H]([C@@H](O)C[C@@]3(C)[C@H]2CC[C@]3(O)C(=O)CO)[C@@]2(C)C=CC(=O)C=C12 [6 α-methyl prednisolone] |  |  | tumor growth [1]: tumor growth was not stopped; suppression of tumor angiogenesis ([1]; under certain conditions): partially suppressed tumor angiogenesis |
| C[C@]12CCC(=O)C=C1CC[C@@H]1[C@@H]2C(=O)C[C@@]2(C)[C@H]1CC[C@]2(O)C(=O)CO [cortisone, 17 alpha, 21-dihydroxy-4-pregene-3,11,20-trione] | to a lesser extent cortisone, inhibited tumor angiogenesis |  | inhibition of capillary growth (capillary growth; tumors; cortisone by itself): does not have the ability to inhibit capillary growth; tumor growth (capillary growth; tumors; large amounts of cortisone, many other publications): continued growth of tumors |
| C[C@@H]1C[C@H]2[C@@H]3CCC4=CC(=O)C=C[C@]4(C)[C@@]3(F)[C@@H](O)C[C@]2(C)[C@@]1(O)C(=O)CO [dexamethasone] | inhibited tumor angiogenesis |  |  |
| C[C@]12CC[C@@H]3c4ccc(O)cc4CC[C@H]3[C@@H]1CC[C@@H]2O [estradiol] | ineffective |  |  |
| CC(=O)[C@@]1(O)CC[C@H]2[C@@H]3C[C@H](C)C4=CC(=O)CC[C@]4(C)[C@H]3CC[C@@]21C [medroxyprogestrone] | inhibited tumor angiogenesis |  |  |
| C[C@]12CC[C@H]3[C@@H](CCC4=CC(=O)CC[C@@]43C)[C@@H]1CC[C@@H]2O [testosterone] | ineffective |  |  |
| OC[C@H]1O[C@@H]2O[C@H]3[C@H](O)[C@@H](O)[C@@H](O[C@H]4[C@H](O)[C@@H](O)[C@@H](O[C@H]5[C@H](O)[C@@H](O)[C@@H](O[C@H]6[C@H](O)[C@@H](O)[C@@H](O[C@H]7[C@H](O)[C@@H](O)[C@@H](O[C@H]8[C@H](O)[C@@H](O)[C@@H](O[C@H]1[C@H](O)[C@H]2O)O[C@@H]8CO)O[C@@H]7CO)O[C@@H]6CO)O[C@@H]5CO)O[C@@H]4CO)O[C@@H]3CO [β-cyclodextrin] |  | immeasurable |  |
| n-tetrapropoxy-β-cyclodextrin [n-tetrapropoxy β-cyclodextrin] |  | immeasurable |  |
| n-tetrapropoxy-β-cyclodextrin sulfate |  | 4.5 10^-4 mho/cm per mg/ml | solubility [4]: 37 gm/100 ml H2O; Alcian Blue stain [5]: generate an Alcian Blue stain |
| β-cyclodextrin tetradecasulfate |  |  | Alcian Blue stain [5]: generate an Alcian Blue stain; Conductivity (average of 2 samples) ([3]; average of 2 samples): 4.6 10^-4 mho/cm per mg/ml |
